Assay results taken from patent publication US6365621B1, “Remedies or preventives for intractable epilepsy” (Pharmaceutical Co., Ltd., priority 1998, dated 2002).
“And” between values parts separate entries of the source, which are not always exact repeats. Equal entries are not always repeated. Where two headings read alike, the source gives them in different places.

Legend:
[1] = system: kainate-induced amygdala seizures; type: in vivo, rat; on Spikes from the amygdala after 24 h: key: (+): effective; (−): ineffective; on Spikes from the amygdala after 48 h: key: (+): effective; (−): ineffective; on Spikes from the amygdala after 72 h: key: (+): effective; (−): ineffective; on Spikes from the amygdala just after intravenous injection: key: (+): effective; (−): ineffective
Method: [Method for measuring an electrophysiological effect] The following operation was performed by use of 19 Wistar male rats (Japan SLC Co.) each having a weight of 250-350 g. Each rat was anesthetized by pentobarbital and fixed in a stereotaxic apparatus. […] Subsequently, a bipolar depth electrode having a diameter of 0.2 mm were inserted into bilateral amygdala (A, +5.0; L, +−5.0; D, −3.0) and hippocampus (A, +3.0; L, +−3.2; D, +1.5). Screw electrodes were set at the left sensorimotor area (A, +1.0 (from bregam); L, +−2.5; D, 0.5 (from dura)), frontal sinus, and occipital median. The electrodes were connected to sockets, and the cannula, the electrodes, and the sockets were fixed on the cranium by use of dental cement. Seven days after operation, 1 μL of a solution of kainic acid dissolved in phosphoric acid buffer (1 mg/ml) was injected through the cannula (rate: […]) (n=12), so as to induce limbic system seizures. The electrodes were connected to an electroencephalograph, and the behavior of the rat in a cage was observed. An electroencephalogram was recorded by use of the electrode at the frontal sinus serving as an indifferent electrode and the electrode at the occipital median serving as ground. The behavior and electroencephalogram were simultaneously recorded by use of a video electroencephalogram recorder based on an electroencephalograph (SYNAFIT 1000; NEC San-ei Instruments, LTD.).
One to two hours after the injection of kainic acid, when a limbic system seizure was in status epilepticus, nefiracetam dissolved in saline (10 mg/mL) was slowly injected into a caudal vein in an amount selected from 10, 50, 100, and 200 mg/kg (n=12). The same amount of saline was injected into a vein of rats of the control group (n=7). Subsequently, behavior and electroencephalograms of the rat were continuously recorded for at least eight hours, followed by two-hour recording after 24 hours, 48 hours, and 72 hours. Changes in clinical seizure and electroencephalogram observations just after the injection of the nefiracetam solution or saline, and occurrence of seizures and electroencephalogram observations after 24, 48, and 72 hours were measured, and the results were evaluated on the basis of the comparison.

[2] = system: kainate-induced cortical focal seizures; assay: Kainate-induced cortical focal seizures: behavior and electroencephalogram; type: in vivo, rat; details: 100 mg/kg i.v. On Decrease of Spikes: key: (+): effective; (−): ineffective. On Sedative action: key: (+): effective; (−): ineffective. On Spikes after 24 hours: key: (+): effective; (−): ineffective.
Method: [Method for measuring an electrophysiological effect] A stereotaxic operation was performed through the same manner as described in I-1 by use of Wistar male rats. A cannula was inserted in the left sensorimotor area for injection of kainic acid, and the cannula was simultaneously used as an electrode. A bipolar depth electrode was set in the bilateral caudatum, and screw electrodes were set in the right sensorimotor area, frontal sinus, and occipital bone. Seven days after operation, 1 μL of kainic acid solution (2 mg/mL) was injected so as to induce cortical focal seizures. After elapse of 1-2 hours from the injection of kainic acid, the same nefiracetam solution as described in I-1 (100 mg/kg) was intravenously injected, and behavior and electroencephalograms were recorded by use of a video electroencephalogram recorder. Suppression of seizures just after the administration of nefiracetam, changes in electroencephalograms, occurrence of seizures thereafter, and electroencephalogram observations were compared with those of the control group.

male mouse = details: peroral; cited from earlier work
[3] = 10 mg/kg i.v., EEG, individual rat
[4] = 50 mg/kg i.v., EEG, individual rat
[5] = 100 mg/kg i.v., EEG, individual rats
[6] = 200 mg/kg i.v., EEG, individual rats
[7] = 200 mg/kg i.v., individual rats

## Cc1cccc(C)c1NC(=O)CN1CCCC1=O [nefiracetam, N-(2,6-dimethylphenyl)-2-(2-oxo-1-pyrrolidinyl)acetamide]
[1]; 10 mg/kg i.v. during status epilepticus, individual rat
  Disappearance of seizures intravenous injection: −
[1]; [3]
  Spikes from the amygdala after 24 h: +
  Spikes from the amygdala just after intravenous injection: +
[1]; 10 mg/kg i.v., individual rat
  Sedative action: −
[1]; 50 mg/kg i.v. during status epilepticus, individual rat
  Disappearance of seizures intravenous injection: −
[1]; [4]
  Spikes from the amygdala after 24 h: +
  Spikes from the amygdala just after intravenous injection: +
[1]; 50 mg/kg i.v., individual rat
  Sedative action: −
[1]; 100 mg/kg i.v.
  Duration of sedative action after injection: 30 to 60 min
[1]; 100 mg/kg i.v. during status epilepticus, individual rats
  Disappearance of seizures intravenous injection: −
[1]; [5]
  Spikes from the amygdala after 24 h: +
  Spikes from the amygdala just after intravenous injection: +
[1]; 100 mg/kg i.v., individual rats
  Sedative action: +
[1]; 200 mg/kg and 100 mg/kg i.v., approximately
  Duration of sedation from just after the injection: 60 to 90 min
[1]; 200 mg/kg i.v.
  Rats in which seizures were not suppressed (behavior and electroencephalogram): 3 out of the 8
[1]; 200 mg/kg i.v. during status epilepticus, individual rats
  Disappearance of seizures intravenous injection: + (5×) and − (3×)
[1]; [6]
  Spikes from the amygdala after 24 h: − (3×) and + (4×)
  Spikes from the amygdala after 48 h: − (3×) and + (3×)
  Spikes from the amygdala after 72 h: − (3×) and + (3×)
  Spikes from the amygdala just after intravenous injection: − (4×) and + (4×)
[1]; 200 mg/kg i.v., among the 5 rats whose seizures disappeared
  Rats in which spikes corresponding to the amygdala disappeared from electroencephalogram: 4 out of the 5
[1]; [7]
  Disappearance period of seizures after intravenous injection: 5 min and 35 min
  Sedative action: +
[1]; 200 mg/kg i.v., rat N5
  Death after intravenous injection (time): 25 min
[1]; 200 mg/kg i.v., seizures later reappeared
  Rats in which seizures disappeared after injection: 5 out of 8
[1]; 10, 50, or 100 mg/kg i.v. during status epilepticus
  Changes in paroxysmal behavior or electroencephalograms: no apparent changes
[2]
  Seizures after awakening: seizures did not appear after awakening
  Seizures after intravenous injection during status epilepticus: the seizures disappeared immediately
  Time to awakening from sedation: ≤ 60 min
[2]; individual rats
  Decrease of Spikes: +
  Disappear of seizures: +
  Reappear of seizures: −
  Sedative action: +
  Spikes after 24 hours: − and + (2×)
Male mouse
  acute toxicity: 2,005 mg/kg
